This assay concerns DU145 (human prostate cancer cells). As to the kind of experiment: Antiproliferative activity, WST1 colorimetric test, DU145. Conditions: 96 hours treatment, 0 to 25 μM. It is filed as cell-based. As to the method: Characterization of the Antiproliferative Activity:
By way of example, the effect of a treatment on two human cell lines Mia-Paca2 and DU145 by the compounds of Examples 1 to 33 described previously will be studied. The cell lines DU145 (human prostate cancer cells) and Mia-PaCa2 (human pancreas cancer cells) were acquired from the American Tissue Culture Collection (Rockville, Md., USA). The cells placed in 95 μl of Dulbecco's Modified Eagle's medium (Gibco-Brl, Cergy-Pontoise, France) completed with 10% foetal calf serum inactivated by heating (Gibco-Brl, Cergy-Pontoise, France), 100 units/l of penicillin and 100 μg/ml/l of streptomycin (Gibco-Brl, 10378-057, Cergy-Pontoise, France), and 2 mM of glutamine (Gibco-Brl, Cergy-Pontoise, France) were seeded on a 96-well plate on day 0. The cells were treated on day 1 for 96 hours with 5 μl of each of the compounds at concentrations increasing from 0 to 25 μM final concentration. At the end of this period, quantification of cell proliferation is evaluated by a colorimetric test based on the cleavage of the tetrazolium salt WST1 by the mitochondrial dehydrogenases in viable cells leading to the formation of formazan (Boehringer Mannheim, Meylan, France). These tests are carried out in duplicate with 8 determinations per concentration tested. […]
For orientation: Tetrazolium assays rely on reduction of a dye to a coloured formazan, in cell work by metabolically active cells.

The structures appear in SMILES notation.

As to `CC[C@H](CO)Nc1nc(NCc2ccccc2)c2ncn(C(C)C)c2n1` [Roscovitine], the “antiproliferative activity regarding DU-145 cells” value is reported as “no antiproliferative activity”.

For the origin of these results see patent US20040048849A1, “Cyclin-dependent kinase (cdk) and glycolene synthase kinase-3 (gsk-3) inhibitors” (priority 2000, published 2004).
